Results taken from ChEMBL document CHEMBL1201862, “PubChem BioAssay data set” (2004).
The source made the active and inactive calls.

Columns and labels:
[1] = molecular target: T1, Polyadenylate-binding protein 1 (Homo sapiens, UniProt P11940); experiment: MLLE binding blockers, Cy5 peptide tracer – biochemical, fluorescence polarization, Cy5-PAM2 peptide, secondary, miRNA deadenylation inhibitor project, dose response (AID 602260); format: functional; conditions: read-out: IC50_Mean
[2] = molecular target: T1, Polyadenylate-binding protein 1; experiment: MLLE domain peptide-binding blockers, IC50 – biochemical, fluorescence polarization, FITC-PAM2 peptide, dose response (AID 602259); format: functional; conditions: read-out: IC50_Mean
[3] = molecular target: T2, Ubiquitin-conjugating enzyme E2 N (Homo sapiens, UniProt P61088); format: functional;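 note: Dose-response confirmation in a TR-FRET assay detecting UBC13-driven polyubiquitin chain formation, inhibition measured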
T2 sequence (P61088 whole entry): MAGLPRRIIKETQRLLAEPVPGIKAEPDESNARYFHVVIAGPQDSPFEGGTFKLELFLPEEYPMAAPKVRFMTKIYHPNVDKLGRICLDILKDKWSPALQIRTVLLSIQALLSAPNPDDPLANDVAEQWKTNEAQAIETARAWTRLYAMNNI

[4] = loss of viability in HepG2 cells – cell-based, CellTiter-Glo, cherry-picked, cytotoxicity control for Shn3 inhibitor project, dose response (AID 624134); format: functional
[5] = reduction of Shn3 3'UTR-driven luciferase in osteoblasts – cell-based, Clone20 osteoblasts, firefly luciferase, cherry-picked, dose response (AID 624132); format: functional;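 note: firefly luciferase luminescence from reporter carrying the Shn3 3'UTR in osteoblasts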
[6] = HIV-1 AD8 envelope cell-cell fusion blockers – cherry-pick, dose response (AID 652062); format: functional, cell-based;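 note: luciferase signal from cell-cell fusion driven by HIV-1 clade B AD8 Env; potency is for inhibitors of fusion seen as a drop in luminescence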
[7] = blockers of HIV-1 ZM109 envelope-driven cell-cell fusion – HeLa effector, CEM target cells, luciferase, cherry-pick, dose response (AID 652058); format: functional, cell-based;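 note: luciferase signal from HIV-1 Env mediated cell-cell fusion of effector and target cells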
[8] = NIH-3T3 fibroblast cytotoxicity, dose response, cytotoxicity control, cell-based, fluorescence, Alamar Blue, secondary assay (AID 2327); format: functional;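 note: NIH-3T3 mouse fibroblasts cultured with fluconazole at 8 µg/mL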
[9] = fluconazole-exposed Candida albicans growth modulators – fluorescence, retest, confirmation (AID 2467); format: functional, cell-based
[10] = non-specific 3'UTR reporter inhibition in Clone20-Shn3RL – cell-based, Renilla luciferase, cherry-picked, counter-screen for Shn3 inhibitor project, dose response (AID 624133); format: functional
[11] = blockers of HIV-1 envelope-mediated cell-cell fusion – cherry-pick, dose response (AID 652057); format: functional, cell-based
[12] = molecular target: T3, Heat shock factor protein 1 (Mus musculus, UniProt P38532); experiment: enhancement of HSF1-driven luciferase signal – cell-based, NIH3T3, luminescence, dose retest, confirmation (AID 435004); format: functional;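 note: stress induced by proteasome inhibitor MG132 added 30 min after compound; luciferase reporter driven by HSF1 response element in NIH3T3 cells; actives raise luminescence as potentiators of the MG132 stress response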
T3 sequence (P38532 whole entry): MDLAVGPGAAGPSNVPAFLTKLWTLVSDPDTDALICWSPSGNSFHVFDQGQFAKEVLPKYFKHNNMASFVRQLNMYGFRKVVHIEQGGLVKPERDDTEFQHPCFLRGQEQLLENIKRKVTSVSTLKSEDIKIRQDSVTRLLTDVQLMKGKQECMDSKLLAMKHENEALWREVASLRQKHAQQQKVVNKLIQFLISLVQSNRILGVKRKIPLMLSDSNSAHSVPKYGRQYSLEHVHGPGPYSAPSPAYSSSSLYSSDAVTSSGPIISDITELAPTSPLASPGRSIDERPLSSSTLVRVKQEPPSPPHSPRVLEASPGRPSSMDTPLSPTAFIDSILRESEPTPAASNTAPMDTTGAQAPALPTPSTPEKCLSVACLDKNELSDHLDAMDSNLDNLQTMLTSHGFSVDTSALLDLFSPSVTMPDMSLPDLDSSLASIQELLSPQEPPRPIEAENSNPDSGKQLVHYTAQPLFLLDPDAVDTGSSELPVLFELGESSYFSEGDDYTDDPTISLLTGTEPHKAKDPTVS

[13] = molecular target: T4, Replicative DNA helicase DnaB (Mycobacterium tuberculosis, UniProt P9WMR3); experiment: DnaB intein splicing inhibitors, dose response, biochemical, cell-free fluorescence (AID 449749); format: functional
T4 sequence (P9WMR3 whole entry): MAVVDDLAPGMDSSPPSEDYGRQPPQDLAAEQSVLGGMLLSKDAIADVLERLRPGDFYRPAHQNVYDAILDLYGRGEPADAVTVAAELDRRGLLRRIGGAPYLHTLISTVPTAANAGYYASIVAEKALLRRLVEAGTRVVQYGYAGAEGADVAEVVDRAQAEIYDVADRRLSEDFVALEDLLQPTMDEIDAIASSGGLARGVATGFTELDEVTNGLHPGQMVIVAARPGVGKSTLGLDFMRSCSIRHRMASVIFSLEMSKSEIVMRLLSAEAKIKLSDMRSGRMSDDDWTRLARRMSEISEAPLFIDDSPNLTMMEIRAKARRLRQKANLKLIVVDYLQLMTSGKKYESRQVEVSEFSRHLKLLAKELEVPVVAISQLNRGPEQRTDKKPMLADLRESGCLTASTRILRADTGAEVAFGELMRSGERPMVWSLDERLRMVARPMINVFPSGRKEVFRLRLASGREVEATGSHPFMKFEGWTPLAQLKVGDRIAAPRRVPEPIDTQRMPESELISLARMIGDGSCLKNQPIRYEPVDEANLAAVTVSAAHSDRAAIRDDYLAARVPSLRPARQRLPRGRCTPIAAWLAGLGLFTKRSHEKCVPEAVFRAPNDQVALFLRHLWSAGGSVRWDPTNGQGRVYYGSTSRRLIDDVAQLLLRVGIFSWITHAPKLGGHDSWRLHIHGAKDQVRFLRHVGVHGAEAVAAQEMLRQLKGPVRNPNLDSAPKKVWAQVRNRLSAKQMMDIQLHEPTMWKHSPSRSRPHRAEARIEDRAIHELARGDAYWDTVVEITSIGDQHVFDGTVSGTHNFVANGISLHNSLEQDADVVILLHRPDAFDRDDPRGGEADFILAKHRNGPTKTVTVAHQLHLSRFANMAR

[14] = cells; format: functional
[15] = molecular target: T5, Protein RecA (Mycobacterium tuberculosis, UniProt P9WHJ3); experiment: Fluorescence Cell-Free Homogeneous Dose Retest to Identify Inhibitors of RecA-Intein Splicing Activity. [Related pubchem assays (depositor defined):AID2097, AID2223, AID489010, AID492950]; format: functional
T5 sequence (P9WHJ3 whole entry): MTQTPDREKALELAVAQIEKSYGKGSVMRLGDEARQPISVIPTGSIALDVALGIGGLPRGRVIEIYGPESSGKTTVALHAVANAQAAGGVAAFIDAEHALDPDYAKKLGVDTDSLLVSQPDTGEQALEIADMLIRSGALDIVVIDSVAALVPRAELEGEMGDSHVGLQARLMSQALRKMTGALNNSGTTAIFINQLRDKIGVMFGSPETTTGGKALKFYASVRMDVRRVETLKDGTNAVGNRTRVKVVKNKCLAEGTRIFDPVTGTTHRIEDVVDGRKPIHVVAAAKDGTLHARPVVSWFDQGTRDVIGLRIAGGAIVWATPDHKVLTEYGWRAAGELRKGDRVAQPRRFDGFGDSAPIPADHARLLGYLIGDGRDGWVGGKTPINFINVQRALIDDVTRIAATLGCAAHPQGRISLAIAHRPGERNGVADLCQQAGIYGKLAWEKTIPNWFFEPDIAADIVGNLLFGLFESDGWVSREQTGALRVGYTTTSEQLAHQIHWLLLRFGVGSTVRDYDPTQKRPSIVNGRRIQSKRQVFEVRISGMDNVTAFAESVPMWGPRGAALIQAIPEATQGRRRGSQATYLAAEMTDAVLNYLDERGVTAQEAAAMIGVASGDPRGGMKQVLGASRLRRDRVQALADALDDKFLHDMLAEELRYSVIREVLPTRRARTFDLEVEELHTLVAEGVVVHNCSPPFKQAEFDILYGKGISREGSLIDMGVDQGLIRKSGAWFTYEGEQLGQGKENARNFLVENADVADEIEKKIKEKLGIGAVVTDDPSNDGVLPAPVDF

[16] = molecular target: T6, Fatty acid synthase (Homo sapiens, UniProt P49327); experiment: inhibition of human FAS-TE enzyme activity – biochemical, kinetic fluorescence intensity, dose response (AID 624326); format: functional;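 note: rate of fluorescence rise from hydrolysis of a fluorogenic O-methyl fluorescein ester substrate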
[17] = molecular target: T6, Fatty acid synthase; experiment: inhibition of human FAS-TE enzyme activity – biochemical, endpoint fluorescence intensity, uHTS hits, dose response (AID 624327); format: functional;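 note: fluorescence from hydrolysis of an O-methyl fluorescein acyl ester substrate by the enzyme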
[18] = Luminescence Cell-Based Dose Retest to Confirm Inhibitors of Cancer Stem Cells. [Related pubchem assays (depositor defined):AID2717, AID2721]; format: functional; conditions: Homo sapiens
[19] = molecular target: Large T antigen (Simian virus 40, UniProt P03070); format: functional, Betapolyomavirus macacae;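 note: Confirmatory-stage PubChem screen for compounds that inhibit SV40 T antigen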
Sequence of Large T antigen (P03070 whole entry): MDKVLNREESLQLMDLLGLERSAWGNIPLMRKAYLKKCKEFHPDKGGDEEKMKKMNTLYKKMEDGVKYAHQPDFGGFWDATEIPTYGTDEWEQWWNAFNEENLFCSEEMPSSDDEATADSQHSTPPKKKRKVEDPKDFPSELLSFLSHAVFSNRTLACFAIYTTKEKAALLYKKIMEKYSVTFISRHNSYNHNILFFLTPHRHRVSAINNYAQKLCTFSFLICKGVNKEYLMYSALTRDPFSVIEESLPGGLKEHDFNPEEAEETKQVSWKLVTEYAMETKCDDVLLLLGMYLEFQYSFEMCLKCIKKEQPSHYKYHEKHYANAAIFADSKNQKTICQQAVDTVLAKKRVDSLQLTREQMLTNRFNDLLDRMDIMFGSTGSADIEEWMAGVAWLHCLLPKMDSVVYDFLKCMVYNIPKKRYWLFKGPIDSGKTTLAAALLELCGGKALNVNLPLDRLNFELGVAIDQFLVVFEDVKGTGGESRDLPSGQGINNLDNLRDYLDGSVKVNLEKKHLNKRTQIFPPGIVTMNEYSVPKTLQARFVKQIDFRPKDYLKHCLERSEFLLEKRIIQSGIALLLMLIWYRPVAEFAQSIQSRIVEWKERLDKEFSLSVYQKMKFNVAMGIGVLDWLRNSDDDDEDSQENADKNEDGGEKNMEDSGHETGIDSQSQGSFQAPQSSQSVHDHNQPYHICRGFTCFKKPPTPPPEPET

T1 sequence (P11940 whole entry, the tested form may be a part): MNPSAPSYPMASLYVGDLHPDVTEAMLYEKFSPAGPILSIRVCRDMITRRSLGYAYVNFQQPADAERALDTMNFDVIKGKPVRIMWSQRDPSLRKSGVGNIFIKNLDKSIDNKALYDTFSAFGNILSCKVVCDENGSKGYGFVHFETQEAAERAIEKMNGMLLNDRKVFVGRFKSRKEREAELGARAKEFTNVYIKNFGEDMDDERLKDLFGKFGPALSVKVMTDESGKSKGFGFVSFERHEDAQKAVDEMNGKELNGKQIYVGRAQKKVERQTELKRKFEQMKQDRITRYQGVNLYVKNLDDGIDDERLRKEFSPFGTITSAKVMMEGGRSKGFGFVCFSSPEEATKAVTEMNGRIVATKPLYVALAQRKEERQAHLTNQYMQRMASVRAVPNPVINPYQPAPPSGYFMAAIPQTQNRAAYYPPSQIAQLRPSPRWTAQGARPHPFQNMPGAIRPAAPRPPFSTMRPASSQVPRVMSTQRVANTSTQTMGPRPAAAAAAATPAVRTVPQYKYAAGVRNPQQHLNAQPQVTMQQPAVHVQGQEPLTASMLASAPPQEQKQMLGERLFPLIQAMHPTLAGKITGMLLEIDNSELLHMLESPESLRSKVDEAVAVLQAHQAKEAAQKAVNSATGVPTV
T6 sequence (P49327 whole entry): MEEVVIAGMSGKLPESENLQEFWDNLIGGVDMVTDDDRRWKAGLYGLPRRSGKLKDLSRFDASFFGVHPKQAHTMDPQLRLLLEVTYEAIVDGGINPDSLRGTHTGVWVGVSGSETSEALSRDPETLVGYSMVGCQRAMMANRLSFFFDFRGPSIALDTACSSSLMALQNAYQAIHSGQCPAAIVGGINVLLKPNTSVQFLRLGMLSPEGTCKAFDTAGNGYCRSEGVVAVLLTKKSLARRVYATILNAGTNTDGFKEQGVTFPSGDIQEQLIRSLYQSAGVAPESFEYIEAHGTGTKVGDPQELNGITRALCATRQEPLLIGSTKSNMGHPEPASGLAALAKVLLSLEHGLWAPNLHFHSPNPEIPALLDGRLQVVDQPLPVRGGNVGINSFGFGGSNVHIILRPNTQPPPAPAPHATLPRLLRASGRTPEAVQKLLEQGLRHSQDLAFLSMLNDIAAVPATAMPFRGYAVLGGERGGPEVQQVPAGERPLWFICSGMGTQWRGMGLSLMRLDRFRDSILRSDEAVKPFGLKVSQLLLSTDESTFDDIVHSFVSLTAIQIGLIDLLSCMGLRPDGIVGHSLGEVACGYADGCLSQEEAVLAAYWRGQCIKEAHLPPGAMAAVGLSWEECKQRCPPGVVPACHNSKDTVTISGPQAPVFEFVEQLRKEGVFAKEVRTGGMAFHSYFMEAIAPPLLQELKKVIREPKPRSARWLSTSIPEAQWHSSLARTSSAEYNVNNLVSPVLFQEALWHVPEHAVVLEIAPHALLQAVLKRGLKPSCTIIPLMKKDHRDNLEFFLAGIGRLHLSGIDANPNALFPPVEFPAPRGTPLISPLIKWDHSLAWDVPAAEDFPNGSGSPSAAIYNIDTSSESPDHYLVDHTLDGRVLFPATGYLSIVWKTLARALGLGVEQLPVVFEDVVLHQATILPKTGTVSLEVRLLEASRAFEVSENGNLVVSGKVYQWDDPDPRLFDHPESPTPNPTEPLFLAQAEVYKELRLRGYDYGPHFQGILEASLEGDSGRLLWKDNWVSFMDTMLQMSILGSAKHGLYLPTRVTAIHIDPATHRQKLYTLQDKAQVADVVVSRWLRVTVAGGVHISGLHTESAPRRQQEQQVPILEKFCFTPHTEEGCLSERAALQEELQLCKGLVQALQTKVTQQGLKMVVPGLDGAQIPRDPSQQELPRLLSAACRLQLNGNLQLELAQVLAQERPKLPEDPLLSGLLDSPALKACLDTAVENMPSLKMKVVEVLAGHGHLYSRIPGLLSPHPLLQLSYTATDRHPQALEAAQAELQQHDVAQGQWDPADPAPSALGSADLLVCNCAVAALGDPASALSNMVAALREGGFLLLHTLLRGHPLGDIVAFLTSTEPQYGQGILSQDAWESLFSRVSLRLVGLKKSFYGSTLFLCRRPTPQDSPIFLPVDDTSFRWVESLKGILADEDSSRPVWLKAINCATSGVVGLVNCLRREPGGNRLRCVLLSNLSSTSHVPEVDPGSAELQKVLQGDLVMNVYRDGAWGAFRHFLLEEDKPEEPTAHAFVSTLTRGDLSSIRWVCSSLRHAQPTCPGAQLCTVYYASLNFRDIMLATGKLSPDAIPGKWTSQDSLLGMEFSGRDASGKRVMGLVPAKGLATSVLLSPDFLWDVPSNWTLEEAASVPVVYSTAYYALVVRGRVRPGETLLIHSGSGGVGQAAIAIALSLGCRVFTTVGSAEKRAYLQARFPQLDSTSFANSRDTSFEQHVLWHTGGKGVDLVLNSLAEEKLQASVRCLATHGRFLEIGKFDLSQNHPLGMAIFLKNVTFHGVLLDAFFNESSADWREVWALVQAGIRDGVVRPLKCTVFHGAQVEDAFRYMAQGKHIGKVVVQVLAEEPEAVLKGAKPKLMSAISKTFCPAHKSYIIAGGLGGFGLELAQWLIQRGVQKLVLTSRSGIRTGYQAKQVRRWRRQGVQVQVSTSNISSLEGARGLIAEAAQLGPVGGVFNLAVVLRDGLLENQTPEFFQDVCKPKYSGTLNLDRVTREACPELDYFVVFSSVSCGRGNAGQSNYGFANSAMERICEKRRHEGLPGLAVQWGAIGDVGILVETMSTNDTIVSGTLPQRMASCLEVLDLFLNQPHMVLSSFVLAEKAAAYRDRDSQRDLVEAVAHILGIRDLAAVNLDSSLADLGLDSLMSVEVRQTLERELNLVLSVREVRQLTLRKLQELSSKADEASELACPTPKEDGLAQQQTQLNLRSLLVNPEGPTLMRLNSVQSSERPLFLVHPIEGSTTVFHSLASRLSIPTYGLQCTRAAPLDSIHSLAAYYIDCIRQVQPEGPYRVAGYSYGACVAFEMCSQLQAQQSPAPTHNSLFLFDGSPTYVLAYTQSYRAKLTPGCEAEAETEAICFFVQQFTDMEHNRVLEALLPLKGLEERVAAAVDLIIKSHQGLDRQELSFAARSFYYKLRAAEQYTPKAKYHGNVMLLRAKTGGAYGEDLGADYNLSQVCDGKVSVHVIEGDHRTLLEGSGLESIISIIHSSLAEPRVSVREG

Cc1nnc(NC(=O)C2c3ccccc3Oc3ccccc32)s1
IC50 [1]: > 66 µM (inactive) | IC50 [2]: > 66 µM (inactive)

c1ccc(C2(CN3CCNC[C@H]3Cc3cccc4ccccc34)CC2)cc1
IC50 [3]: > 20 µM (inactive)

COc1ccc2nc3oc(C(=O)NC4CCN(Cc5ccccc5)CC4)cc3cc2c1
IC50 [3]: > 20 µM (inactive)

Cc1ccc(C(N)=S)c(C)c1
IC50 [1]: > 66 µM (inactive) | IC50 [2]: > 66 µM (inactive)

c1csc(CNc2ncnc3sccc23)c1
AC50 [4]: 4.61 µM (active) | AC50 [5]: 1.8 µM (active) | AC50 [6]: 8.87 µM (active) | AC50 [7]: 46.1 µM (active) | EC50 [8]: > 160 µM (inconclusive) | EC50 [9]: 3.28 µM (active) | AC50 [10]: 4.77 µM (active) | AC50 [11]: 39.4 µM (active)

CCCCN=C(S)NNC(=O)c1csc2ccccc12
EC50 [12]: > 260 µM (inactive)

Cn1c(=O)c2nc(COc3ccccc3)[nH]c2n(C)c1=O
IC50 [1]: 33.5 µM (inactive) | IC50 [2]: 29.7 µM (inactive)

CCCCOc1ccc(C(=O)N/N=C/c2c[nH]nc2-c2ccc(OC)c(OC)c2)cc1
EC50 [12]: > 260 µM (inactive)

CO[C@@H](CN(C)S(=O)(=O)c1ccc(Cl)cc1)[C@@H](C)CN([C@H](C)CO)S(=O)(=O)c1cccc(Cl)c1
AC50 [6]: 19.5 µM (active) | AC50 [7]: 1.1 µM (active) | AC50 [11]: 1.25 µM (active)

CC(C)(C)OC(=O)NCCc1nnc(S(=O)(=O)Cc2ccc(Cl)cc2Cl)o1
AC50 [13]: 1.61 µM (active) | IC50 [14]: 30.1 µM (active) | EC50 [15]: 4.66 µM (active) | IC50 [16]: 6.42 µM (active) | IC50 [17]: 4.23 µM (active) | AC50 [18]: 3.94 µM (active)

CC(/C=N/n1c(S)nnc1-c1cccnc1)=C\c1ccccc1
IC50 [19]: 58.1 µM (active)

C/C(=N\NC(=O)Cn1cc([N+](=O)[O-])cn1)c1ccc(O)cc1
IC50 [19]: 54.5 µM (active)
